US8440637B2, “Combination treatment for the treatment of hepatitis C virus infection” (priority 2007, dated 2013)
l = locked nucleic acid (LNA); d = 2'-deoxy (DNA)

System: miR-122
Assay: Genome-wide liver expression profiling, Affymetrix Mouse Genome 430 2.0 arrays
Assay type: in vivo
Procedure: We carried out genome-wide expression profiling of total RNA samples from saline LNA-antimiR-122 treated and LNA mismatch control treated mice livers 24 hours after the last dose using Affymetrix Mouse Genome 430 2.0 arrays. […] We subsequently examined the 3′ untranslated regions (UTRs) of the differentially expressed mRNAs for the presence of the 6 nt sequence CACTCC, corresponding to the reverse complement of the nucleotide 2-7 seed region in mature miR-122.
Expression profiles of livers of saline and LNA-antimiR treated mice were compared. NMRI female mice were treated with 25 mg/kg/day of LNA-antimiR along with saline control for three consecutive days and sacrificed 24 h, 1, 2 or 3 weeks after last dose. Additionally, expression profiles of livers of mice treated with the mismatch LNA control oligonucleotide 24 h after last dose were obtained. Three mice from each group were analyzed, yielding a total of […] expression profiles. RNA quality and concentration was measured using an Agilent 2100 Bioanalyzer and Nanodrop ND-1000, respectively. Total RNA was processed following the GeneChip Expression 3′-Amplification Reagents One-cycle cDNA synthesis kit instructions (Affymetrix Inc, Santa Clara, Calif., USA) to produce double-stranded cDNA. This was used as a template to generate biotin-labeled cRNA following manufacturer's specifications. Fifteen micrograms of biotin-labeled cRNA was fragmented to strands between 35 and 200 bases in length, of which 10 micrograms were hybridised onto Affymetrix Mouse Genome 430 2.0 arrays overnight in the GeneChip Hybridisation oven 6400 using standard procedures. The arrays were washed and stained in a GeneChip Fluidics Station 450. Scanning was carried out using the GeneChip Scanner 3000 and image analysis was performed using GeneChip Operating Software. Normalization and statistical analysis were done using the LIMMA software package for the R programming environment27. Probes reported as absent by GCOS software in all hybridizations were removed from the dataset. Additionally, an intensity filter was applied to the dataset to remove probes displaying background-corrected intensities below 16. Data were normalized using quantile normalization28. Differential expression was assessed using a linear model method. P values were adjusted for multiple testing using the Benjamini and Hochberg. Tests were considered to be significant if the adjusted p values were p<0.05. Clustering and visualization of Affymetrix array data were done using the MultiExperiment Viewer software29.

[1] = liver, 24 hours after the last dose

Q: “5′-ccAttGtcAcaCtcCa-3′ (antisense CCATTGTCACACTCCA; sugars from the 5' end ddlddlddlddlddld, backbone and methylation of C not given here) [SEQ ID NO: 61]” was tested. Which “differentially expressed mRNAs” value (24 hours after the last LNA dose) did it give?
A: 509

Q: What about the differentially expressed genes (after one week) of the same substance?
A: 251

Q: What about the transcripts downregulated [1] of the same substance?
A: 54

Q: And the “transcripts upregulated compared to saline and LNA mismatch controls” value [1]?
A: 455

Q: And the differentially expressed genes (three weeks post treatment)?
A: 18
